According to patent US11530216B2, “Deuterated colony stimulating factor-1 receptor (CSF-1R) inhibitors” (Genzyme Corporation, priority 2020, dated 2022):
Read-outs that look alike come from different tables or passages of the source.

Tests used:
[1] = Metabolite profiles in human cryopreserved hepatocytes in absence and presence of AO inhibitor hydralazine; type: in vitro ADME; details: 2 hours; for % of Total (integrated MS peak areas), Human Hepatocytes: absence of hydralazine; for % of Total (integrated MS peak areas), Human Hepatocytes + Hydralazine: hydralazine 10 μM
Protocol: After study sampling, the remaining samples from triplicate incubations were combined and processed for the metabolite identification study.
(§1) To each sample was added equal amounts of ice-cold acetonitrile (v/v) and the samples were then vortex mixed. Following centrifugation at approximately 13,000 rpm for 10 minutes, the supernatants were concentrated under nitrogen flow at 35° C. until approximately 0.1-0.2 mL of extract remained. Prior to analysis, the remaining extract was centrifuged at approximately 13,000 rpm for 15 minutes. The supernatant was injected into LC/UV/MS for analysis.
Metabolite identification was performed on UPLC (Thermo Vanquish) coupled with UV (Thermo Vanquish) and mass spectrometry (MS) detection (Thermo Orbitrap ID-X).
The mass peak areas were used for metabolite profiling, due to low sample concentrations. […] Metabolites having a peak area that accounts for equal to or more than 0.1% of the toral integrated MS peaks areas are reported in Table 1 below.
The metabolites are characterized based on their accurate masses (tolerance ≤5 ppm), mass fragmentation patterns, and comparison with other in vitro studies.
After study sampling, the remaining samples from triplicate incubations were combined and processed for metabolite identification study.
as §1, with “were” for “were then”, “was” for “were”
The mass peak areas are used for metabolite profiling, due to low sample concentrations. […] Metabolites having a peak area that accounts for equal to or more than 0.1% of the toral integrated MS peaks areas are reported in Table 2 below.
The metabolites are characterized based on their accurate masses (tolerance≤5 ppm), mass fragmentation patterns, and comparison with other in vitro studies.

[2] = Human hepatocyte intrinsic clearance; type: in vitro ADME; details: human, hepatocytes
Protocol: Incubations were performed in 0.5 million hepatocytes cells/mL at 1 μM concentration of test compound in duplicate with rat, human, dog, monkey, or mouse hepatocytes, and the concentration-time course of test compound depletion was determined after withdrawing samples from the incubation at assay time points followed by liquid chromatography with tandem mass spectrometry analysis. An organic solvent was used to terminate incubations.
These available known AO substrates along with the test compounds were analyzed using three in vitro systems (pooled human liver cytosol, liver S-9 fractions and human hepatocytes isolated from livers perfused with HTK media). Scaled unbound intrinsic clearances were calculated for the test compounds/new chemical entities and were compared to the in vivo unbound intrinsic clearances of the known AO substrates.

Caco-2 efflux assay = type: in vitro ADME; details: human
Protocol: (§2) Caco-2 permeability and efflux assays were performed in cell-based permeability model using Caco-2/TC7 cells. For permeability assays, Caco-2/TC7 cells were seeded on to Millipore Millicell 96 and for efflux assays, 24-well plates were used. The plates with cells were ready to use between 21-25 days of culturing. Both permeability and efflux assays were performed using the TECAN automated liquid handling platform. For permeability assays, test compounds were prepared at 20 μM test concentrations in permeability assay buffer (10 mM HEPES in HBSS buffer, pH 6.5) containing 0.5% BSA. Basolateral permeability buffer (pH 7.4) contains 5% BSA. For efflux assays, test compounds were prepared at 1 μM test concentrations in permeability assay buffer (10 mM HEPES in HBSS buffer, pH 7.4) containing 0.5% BSA. For efflux assays, the basolateral permeability buffer (pH 7.4) contained 0.5% BSA. The permeability assay was initiated by adding 20 μM test solution to apical side of plate containing Caco-2/TC7 cells. In the efflux assay, 1 μM test compound was added to an apical compartment for apical to basolateral (A to B) permeability determination. For basolateral to apical (B to A) permeability determination, the test compound was added to the basolateral side. The plate was incubated for 90 min under constant shaking at 37° C. At the end of the incubation period, samples taken were analyzed using high pressure liquid chromatography with tandem mass spectrometry. For each assay, apparent permeability (Papp) and recovery was calculated from mass spectrometry data. For permeability assay, Papp values are reported as numbers×10^−07 cm/s. For efflux assays, the efflux ratio is calculated using Papp (basolateral to apical) to Papp (apical to basolateral), in addition to recovery values.

[3] = Caco-2 permeability assay; type: in vitro ADME; details: human; for Papp at 90 min, 20 μM: apical pH 6.5, 90 min
Protocol: as §2

[4] = tested on: IL-12p40 production in primary mouse microglia (wild type, SOD1); test: IL-12p40 ELISA, wild-type and SOD1 primary microglia, LPS stimulation; type: cell-based; details: LPS stimulation, 50, 100, 200 nM, wild type and SOD1 cells
Protocol: The impact of a deuterated CSF-1R inhibitor of this disclosure on cytokine/chemokine production following CSF-1 or LPS stimulation in wild-type versus SOD1 mutant primary microglial cells was examined in the following experiments.
Methods Treatment and Stimulation of Primary Microglial Cells
Primary mouse microglia were suspended at a concentration of 5×10^5 cells/mL and 100 μL of this cell suspension was added to each well of a 96-well plate. Microglia cells were allowed to rest overnight at 37° C., 5% CO2. […] Cells were then stimulated with 100 ng/mL recombinant mouse M-CSF for 30 minutes or 10 ng/mL lipopolysaccharide for 24 hours. After stimulation, the culture supernatant was removed from each well and aliquoted into two different 96-well plates for subsequent ELISA assays.
Cell culture supernatants were assayed with the Quantikine Mouse IL-12p40 ELISA kit from R&D Systems (cat #MP400). Samples were diluted 1:10 with Calibrator Diluent. Fifty microliters of Assay Diluent were first added to each well. Fifty microliters of Standards, Assay Control and diluted Sample were then added in singlicate to the wells. The plate was mixed by gently tapping the frame, then sealed with an adhesive strip. The plate incubated for 2 hours at room temperature. […] After incubation, the acid stop solution was added to each well, and the plate was read on the ELISA plate reader at 450 nm.

[5] = incubation of Compound 24, 1 μM

Compound: COc1ccc(C2Oc3c(OC)cc(Cn4cnc5cccnc54)cc3O[C@H]2C)cn1 (stereo partly drawn) [Compound 24]
- % of Total (integrated MS peak areas), Human Hepatocytes [1, 5]: 72.2%
- % of Total (integrated MS peak areas), Human Hepatocytes + Hydralazine [1, 5]: 90.9%
- CLint scaled at 1 μM [2]: 32.3 mL/min/kg
- hepatocyte CLint at 1 μM [2]: 12.7 µL/min/1e6 cells
- Papp A→B at 90 min, 1 μM (Caco-2 efflux assay): 12.5 ×10⁻⁶ cm/s
- Papp B→A at 90 min, 1 μM (Caco-2 efflux assay): 25.6 ×10⁻⁶ cm/s
- recovery at 90 min, 1 μM (Caco-2 efflux assay; read-out: Recovery A to B): 93%
- recovery at 90 min, 1 μM (Caco-2 efflux assay; read-out: Recovery B to A): 94%
- recovery at 90 min, 20 μM [3]: 80%
- Papp at 90 min, 20 μM [3]: 37.7 ×10⁻⁶ cm/s

Compound: [2H]c1nc2cccnc2n1Cc1cc(OC)c2c(c1)O[C@@H](C)[C@H](c1ccc(OC)nc1)O2 [Compound 6, 3-(((2S,3S)-8-methoxy-2-(6-methoxypyridin-3-yl)-3-methyl-2,3-dihydrobenzo[b][1,4]dioxin-6-yl)methyl)-3H-imidazo[4,5-b]pyridine-2-d]
- % of Total (integrated MS peak areas), Human Hepatocytes ([1]; incubation of Compound 6, 1 μM): 87.1%
- % of Total (integrated MS peak areas), Human Hepatocytes + Hydralazine ([1]; incubation of Compound 6, 1 μM): 92.0%
- IL12-p40 production [4]: significantly reduced IL12-p40 production in a concentration dependent manner
- CLint scaled at 1 μM [2]: 20 mL/min/kg
- hepatocyte CLint at 1 μM [2]: 7.88 µL/min/1e6 cells
- Papp A→B at 90 min, 1 μM (Caco-2 efflux assay): 13.5 ×10⁻⁶ cm/s
- Papp B→A at 90 min, 1 μM (Caco-2 efflux assay): 29.2 ×10⁻⁶ cm/s
- recovery at 90 min, 1 μM (Caco-2 efflux assay; read-out: Recovery A to B): 88%
- recovery at 90 min, 1 μM (Caco-2 efflux assay; read-out: Recovery B to A): 82.5%
- recovery at 90 min, 20 μM [3]: 73%
- Papp at 90 min, 20 μM [3]: 37.7 ×10⁻⁶ cm/s
